Where two headings read alike, the source gives them in different places.
How the values were obtained:
Assay type in all cases: binding
[1] = biological target: T1, HeLa cell extract proteins (Homo sapiens, UniProt Q6P2E9)
T1 construct: endogenous in cells; host or cells: HeLa cell extract
T1 sequence (Q6P2E9 1-1401): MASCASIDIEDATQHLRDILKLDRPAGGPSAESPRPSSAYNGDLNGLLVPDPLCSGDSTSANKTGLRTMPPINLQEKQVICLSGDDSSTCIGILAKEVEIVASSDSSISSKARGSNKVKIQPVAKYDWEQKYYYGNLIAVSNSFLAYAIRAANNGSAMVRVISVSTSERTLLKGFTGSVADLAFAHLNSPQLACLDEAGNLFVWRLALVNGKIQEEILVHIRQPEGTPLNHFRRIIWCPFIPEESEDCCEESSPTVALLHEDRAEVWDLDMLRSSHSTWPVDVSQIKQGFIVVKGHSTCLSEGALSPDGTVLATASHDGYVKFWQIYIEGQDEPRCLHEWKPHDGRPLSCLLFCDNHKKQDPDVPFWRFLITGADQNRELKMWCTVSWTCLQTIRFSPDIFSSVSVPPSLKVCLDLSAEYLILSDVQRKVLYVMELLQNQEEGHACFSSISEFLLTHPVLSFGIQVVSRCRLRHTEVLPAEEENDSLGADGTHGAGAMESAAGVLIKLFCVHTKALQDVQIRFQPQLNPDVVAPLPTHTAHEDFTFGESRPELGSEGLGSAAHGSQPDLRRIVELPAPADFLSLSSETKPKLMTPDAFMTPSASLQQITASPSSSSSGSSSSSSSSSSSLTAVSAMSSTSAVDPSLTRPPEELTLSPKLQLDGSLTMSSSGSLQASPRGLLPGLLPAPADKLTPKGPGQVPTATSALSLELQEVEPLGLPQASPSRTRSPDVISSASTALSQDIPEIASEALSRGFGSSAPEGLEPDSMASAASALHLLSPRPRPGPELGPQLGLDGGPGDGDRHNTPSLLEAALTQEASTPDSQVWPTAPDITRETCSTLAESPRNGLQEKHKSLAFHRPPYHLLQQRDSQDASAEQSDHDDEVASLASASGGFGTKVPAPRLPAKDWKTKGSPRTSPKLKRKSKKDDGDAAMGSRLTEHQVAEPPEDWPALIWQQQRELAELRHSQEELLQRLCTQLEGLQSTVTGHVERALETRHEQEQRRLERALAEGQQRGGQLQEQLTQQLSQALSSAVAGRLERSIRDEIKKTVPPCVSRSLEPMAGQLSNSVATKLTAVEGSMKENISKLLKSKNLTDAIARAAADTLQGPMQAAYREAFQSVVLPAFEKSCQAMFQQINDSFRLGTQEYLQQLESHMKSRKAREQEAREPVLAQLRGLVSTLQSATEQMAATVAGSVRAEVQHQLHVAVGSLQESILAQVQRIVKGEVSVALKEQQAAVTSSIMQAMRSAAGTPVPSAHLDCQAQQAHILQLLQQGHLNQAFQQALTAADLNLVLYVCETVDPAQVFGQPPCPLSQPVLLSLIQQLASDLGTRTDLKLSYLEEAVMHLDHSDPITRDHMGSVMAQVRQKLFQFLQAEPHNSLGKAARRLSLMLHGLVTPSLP

[2] = biological target: T2, HeLa cell extract proteins (Homo sapiens, UniProt P05165)
T2 construct: endogenous in cells; host or cells: HeLa cell extract
T2 sequence (P05165 53-728): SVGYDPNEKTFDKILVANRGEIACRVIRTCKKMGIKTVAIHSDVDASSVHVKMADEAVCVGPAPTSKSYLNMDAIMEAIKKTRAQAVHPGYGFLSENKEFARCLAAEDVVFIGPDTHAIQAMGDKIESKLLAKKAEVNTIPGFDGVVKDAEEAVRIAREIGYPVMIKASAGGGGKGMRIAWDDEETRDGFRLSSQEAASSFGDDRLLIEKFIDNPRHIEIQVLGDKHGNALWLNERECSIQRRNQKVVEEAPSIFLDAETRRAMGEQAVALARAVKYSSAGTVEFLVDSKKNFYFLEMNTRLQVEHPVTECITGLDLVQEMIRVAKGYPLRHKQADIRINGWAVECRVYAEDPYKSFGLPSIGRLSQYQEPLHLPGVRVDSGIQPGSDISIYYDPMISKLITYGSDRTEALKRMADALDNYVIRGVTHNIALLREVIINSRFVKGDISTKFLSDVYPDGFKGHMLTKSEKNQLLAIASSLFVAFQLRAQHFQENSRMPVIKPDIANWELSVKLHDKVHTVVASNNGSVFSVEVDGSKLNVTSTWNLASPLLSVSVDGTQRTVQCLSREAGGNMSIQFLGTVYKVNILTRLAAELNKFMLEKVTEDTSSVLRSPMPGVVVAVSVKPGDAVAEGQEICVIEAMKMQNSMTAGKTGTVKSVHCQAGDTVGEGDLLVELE

[3] = biological target: T3, HeLa cell extract proteins (Homo sapiens, UniProt P12004)
T3 construct: endogenous in cells; host or cells: HeLa cell extract
T3 sequence (P12004 whole entry): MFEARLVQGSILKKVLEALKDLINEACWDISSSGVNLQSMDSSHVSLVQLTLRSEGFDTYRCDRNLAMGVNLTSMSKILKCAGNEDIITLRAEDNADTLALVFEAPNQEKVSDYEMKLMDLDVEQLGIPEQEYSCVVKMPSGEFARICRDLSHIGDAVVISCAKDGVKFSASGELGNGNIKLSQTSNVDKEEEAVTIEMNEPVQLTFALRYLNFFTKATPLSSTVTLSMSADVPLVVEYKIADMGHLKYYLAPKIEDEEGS

[4] = biological target: T4, HeLa cell extract proteins (Homo sapiens, UniProt P57740)
T4 construct: endogenous in cells; host or cells: HeLa cell extract
T4 sequence (P57740 1-925): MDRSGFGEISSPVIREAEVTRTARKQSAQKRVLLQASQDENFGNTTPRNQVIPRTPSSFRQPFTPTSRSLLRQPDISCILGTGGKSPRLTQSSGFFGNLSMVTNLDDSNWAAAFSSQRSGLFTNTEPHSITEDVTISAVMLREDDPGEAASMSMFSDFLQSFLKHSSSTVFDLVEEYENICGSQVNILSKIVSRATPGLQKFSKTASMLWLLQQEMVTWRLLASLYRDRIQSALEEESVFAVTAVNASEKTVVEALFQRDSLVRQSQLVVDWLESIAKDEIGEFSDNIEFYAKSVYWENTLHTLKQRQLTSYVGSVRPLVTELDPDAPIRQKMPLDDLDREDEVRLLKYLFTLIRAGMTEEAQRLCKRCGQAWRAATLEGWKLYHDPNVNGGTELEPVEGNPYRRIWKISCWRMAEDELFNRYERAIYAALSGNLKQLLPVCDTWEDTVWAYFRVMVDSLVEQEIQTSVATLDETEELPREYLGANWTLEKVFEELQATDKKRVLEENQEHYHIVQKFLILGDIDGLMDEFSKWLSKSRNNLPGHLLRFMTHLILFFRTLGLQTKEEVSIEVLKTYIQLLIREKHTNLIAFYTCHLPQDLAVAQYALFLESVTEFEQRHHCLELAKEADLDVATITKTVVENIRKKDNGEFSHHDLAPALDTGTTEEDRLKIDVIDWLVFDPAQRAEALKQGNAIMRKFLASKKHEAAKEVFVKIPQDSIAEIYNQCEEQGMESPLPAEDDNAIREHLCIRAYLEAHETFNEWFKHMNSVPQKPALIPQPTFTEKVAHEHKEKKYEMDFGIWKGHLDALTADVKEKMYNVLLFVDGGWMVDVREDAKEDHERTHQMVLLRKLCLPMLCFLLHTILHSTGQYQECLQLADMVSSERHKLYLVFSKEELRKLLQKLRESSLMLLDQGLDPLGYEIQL

[5] = HeLa, protein PCCA (80 KDA PROTEIN)

SMILES	fold changes relative to vehicle control ([1]; HeLa, protein EDC4)	fold changes relative to vehicle control [2, 5]	fold changes relative to vehicle control ([3]; HeLa, captured protein PCNA)	fold changes relative to vehicle control ([4]; HeLa, protein NUP107)	fold changes relative to vehicle control [1]	fold changes relative to vehicle control [2]	fold changes relative to vehicle control [3]	fold changes relative to vehicle control [4]	fold changes relative to vehicle control ([2]; captured protein PCCA, HeLa)	fold changes relative to vehicle control ([3]; protein PCNA, HeLa)
Nc1nc2c(c(=O)[nH]1)N(C=O)C(CNc1ccc(C(=O)N[C@@H](CCC(=O)O)C(=O)O)cc1)CN2 (stereo partly shown) [LEU, leucovorin]	1.03	1.07	1.25	1.01						
Nc1nc2[nH]cc(CCc3ccc(C(=O)N[C@@H](CCC(=O)O)C(=O)O)cc3)c2c(=O)[nH]1 [PTX, pemetrexed]					1.02	0.21	1.29	0.98		
CCCCCCOc1ccc(Cc2cnc(N)nc2N)cc1 [compound 1]	0.87			0.98					1.07	1.18
CCCCCCOc1cccc(Cc2cnc(N)nc2N)c1 [compound 2]	1.12			1.03					0.99	1.65
Nc1nc2cccc(-c3ccccc3)c2n1Cc1ccc(Cl)c(Cl)c1 [compound 3]	0.98			1.07					1.01	0.77
NCCOCCOCC(=O)Nc1nc2ncc(CNc3ccc(C(=O)NC(CCC(=O)O)C(=O)O)cc3)nc2c(=O)[nH]1 (stereo not shown) [compound 6]	1.03	0.98	1.47	1.18						
NCCCNc1ccc(C(=O)NC(CCC(=O)O)C(=O)O)cc1 (stereo not shown) [compound 7]	0.97	1.04	1.02	1.26						
